Experimental data from US20220340983A1, “SYSTEMS AND ASSAYS FOR IDENTIFYING PU.1 INHIBITORS” (Massachustts Institute of Technology, priority 2019, published 2022).

How the values were obtained:
[1] = tested on: iPS and ES-microglia; experiment: Average cell size (Vybrant DiI-positive surface area per Hoechst-positive cell) in microglia; assay type: cell-based, human; conditions: A11 alone ≤20 nM
Procedure: (§1) Top row: Effect of a 2-day treatment with DPBS (10 μL/mL), IFNγ (25 ng/mL), TNFα (25 ng/mL), TGFβ (25 ng/mL), IL1β (25 ng/mL), LPS (25 ng/mL), ATP (100 nM), CD200 (100 ng/mL), IFNα (25 ng/mL), IL12 (5 ng/mL), CX3CL1 (100 ng/mL), CCL5 (100 ng/mL), PMA (10 ng/mL), IFNβ (10 ng/mL), IL33 (10 ng/mL), and IL4 (100 ng/mL). n=52 for DPBS, n=9 for all other inflammatory molecules, except IL33 where n=3. Bottom row: effect after co-application with A11 (20 nM). Scale bar 10 μm. […] Student's unpaired, two sided t-test, ****P≤0.0001, ***P≤0.001, **P≤0.01, *P≤0.05. […] Top row: An increase in number of cells per well with ≥2 BODIPY-positive structures was observed after a 2-day treatment with IFNγ (25 ng/mL), TNFα (25 ng/mL) and IL33 (10 ng/mL) as compared to DPBS treatment. […] Student's unpaired, two-sided t-test, ***P≤0.001, **P≤0.01, *P≤0.05. […] A 2-day treatment with IFNγ (25 ng/mL) caused increase in ATP levels that was reversed by A11 (20 nM) treatment in iPS (left panel) and ES-microglia (right panel). Student's unpaired, twosided t-test, **P≤0.01. […]
(§2) FIGS. 17A-17H show results from comparing the effects of multiple inflammatory molecules in iPS-microglia. […] Quantification based on total Vybrant DiI-positive surface area divided by number of Hoechst positive cells per field of view. […]

[2] = tested on: iPS and ES-microglia; experiment: ELISA for IL1β in microglia supernatant; assay type: cell-based, human
[3] = tested on: iPSC-microglia; experiment: Cell viability in iPSC-microglia; assay type: cell-based, human
Procedure: (§3) FIGS. 10A-10D show anti-inflammatory properties of A11 after IFNγ treatment on human induced pluripotent stem cell derived microglia. Cell viability is shown in FIG. 10A as measured with CellTiter Glo (Promega) in untreated (vehicle), A11 (2.5 μM) treated, IFNγ (25 ng/mL) treated and A11 +IFNγ treated cells. The morphology (round represent un-activated and elongated, filamentous represent activated by IFNγ) of these same conditions is shown in FIGS. 10B and quantified in FIG. 10C.
(§4) Human induced pluripotent stem cell derived microglia (iPSC-microglia) were activated with IFN-gamma (25 ng/mL, 3 days) and co-treated with A11 (2.5 μM, 2 days).
A concentration response curve was performed for cell viability and myelin uptake (FIG. 12A) in iPSC-microglia. Myelin uptake was measured by uptake of pHrodo-GFP-labelled wild-type mouse myelin particles (FIG. 12B). […] The IC50s obtained for these assays was in the low nM range, matching the data obtained in BV2 cells.

[4] = tested on: iPS and ES-microglia; experiment: ATP levels (CellTiter-Glo luminescence per well) in microglia; assay type: cell-based, human
Procedure: as §1, §2

[5] = tested on: iPSC-microglia; experiment: Morphology of IFN-gamma activated iPSC-microglia; assay type: cell-based, human; conditions: IFN-gamma 25 ng/mL 3 days, co-treated with A11 2.5 μM 2 days
Procedure: as §3, §4

[6] = tested on: multiple cell lines; experiment: Time course of A11 efficacy after application; assay type: cell-based; conditions: A11 obtained from several vendors
From the text: The gene modulation was reproduced in unmodified BV2 cells and primary mouse microglia. FIG. 14B: Concentration-response curve of A11 from multiple vendors, measured as percent reduction of luminescence. Non-linear fit with Hill's equation with baseline fixed to 0. FIG. 14C: Time course for reduction of mRNA levels of luciferase and il1β as well as luminescence emission in BV2 PU.1-Luciferase cells. FIGS. 14D-14E: Time and concentration-response curve (of pHrodo-labelled particles) for uptake of pHrodo-labelled Zymosan A (FIG. 14D) and mouse myelin in (FIG. 14E) in BV2 cells (left panels, respectively in each FIGS. 14D-14E), and iPS-microglia (right panels, respectively in each FIGS. 14D-14E). FIGS.: 14F-14G: Time and concentration-response curves of A11 (FIG. 14F) and DB2313 (FIG. 14G) of Zymosan A uptake in BV2 cells. Left, middle, and right panels show 1, 2 and 3 hours after compound application, respectively. ANOVA followed by Dunnett's post hoc test versus vehicle, black bars indicate P≤0.05.

[7] = tested on: iPSC-microglia; experiment: mRNA expression (RTqPCR) in IFN-gamma activated iPSC-microglia; assay type: cell-based, human; conditions: IFN-gamma 25 ng/mL 3 days, co-treated with A11 2.5 μM 2 days
Procedure: as §3, §4

[8] = tested on: iPS and ES-microglia; experiment: Intracellular neutral lipid accumulation (BODIPY staining) in microglia; assay type: cell-based, human
Procedure: as §1, §2

[9] = concentration response curve, iPSC-microglia, after 48 h

With `O=S(=O)(NCc1ccncc1)c1ccc(C2CCCCC2)cc1` [Compound A11] the “average cell size versus DPBS treatment” value [1] was “no effects”, the “supernatant IL1β levels, increase by IFNγ” value ([2]; 2-day IFNγ 25 ng/mL plus A11 20 nM, iPS and ES-microglia) was “reversed” and the “IL1β concentration in the supernatant” value ([2]; A11 alone 20nM, 2-day treatment) was “did not affect”. For the same molecule, the “cell viability (CellTiter Glo)” value ([3]; IFN-gamma 25 ng/mL 3 days, co-treated with A11 2.5 μM 2 days) was “No significant change”, the “IC50 of cell viability” value [3, 9] was “low nM range” and the “reduction in cell viability” value [3, 9] was “weak reduction”. For the same molecule, the “ATP levels, increase caused by IFNγ” value ([4]; 2-day IFNγ 25 ng/mL plus A11 20 nM) was “reversed”, the “amount of ATP per well” value ([4]; A11 alone ≤20 nM) was “no effect” and the “morphology induced by IFN-gamma” value [5] was “reversal of the elongated and filamentous morphology induced by IFN-gamma”. For the same molecule, the “time after application at which efficacy starts” value [6] was 3 h, the “CCL2 mRNA expression levels” value [7] was “reversal of IL1-beta and CCL2 increases to vehicle treated levels” and the “IL1-beta mRNA expression levels” value [7] was “reversal of IL1-beta and CCL2 increases to vehicle treated levels”. The “number of cells containing ≥2 BODIPY-positive structures” value ([8]; A11 alone <20 nM, iPS and ES-microglia) was “no effect” and the “number of cells with ≥2 BODIPY-positive structures, increase by inflammatory molecules” value ([8]; iPS-microglia, 2-day treatment with IFNγ, TNFα or IL33 plus A11) was “reversed this increase”.
